Laboratory results published in US20190307833A1, “TREATMENT OF AGE-RELATED MACULAR DEGENERATION WITH NEUROTROPHIC PEPTIDERGIC COMPOUND” (The Research Foundation for Mental Hygiene, Inc., priority 2018, published 2019).
*1 amine or outer side, *2 acyl side, *3 side chain or, on linkers, in order; H or OH if unused. Where a SMILES comes first, the peptide text is derived from it. [ ]: non-standard residue; d: D form. X1 = O=C(C1(N[*:1])C2CC3CC(C2)CC1C3)[*:2]

Key:
[1] = chronic oral treatment, aged rats and mice; cited from earlier work
[2] = system: VEGF; experiment: VEGF immunofluorescence in retina and optic nerve of aged 3×Tg-AD mice; type: in vivo, mouse
Description: (§1) At approximately 3 months of age, the female wild type and 3×Tg-AD mice were divided into five groups (n=6-7 mice per group) (FIG. 3A): (1) Wild type mice, age 3 months, without treatment (WT-3m); (2) 3×Tg-AD mice, age 3 months, without treatment (3×Tg-3m); (3) Wild type mice, age 3 months, treated with vehicle feed without P021 until the age of 21 months (WT-21m/Veh); (4) 3×Tg-AD-mice, age 3 months, treated with vehicle feed without P021 until the age of 21 months (3×Tg-21m/Veh); and (5) 3×Tg-AD-mice, age 3 months, treated with 60 nmol P021/g feed till the age of 21 months (3×Tg-21m/P021). The first two groups were the starting point and were employed as the matched young controls. P021 was formulated in the feed by Research Diets (New Brunswick, N.J., USA). Food consumption and body weight were recorded every 2 weeks and every month, respectively. The average mouse food consumption was ˜2.7 g feed/day.
(§2) The animals were anesthetized by using an overdose of avertin and then were transcardially perfused by using 0.1 M phosphate-buffered saline (PBS). Eyeballs were dissected out from the carcasses, immersion-fixed for 24 hours in 4% paraformaldehyde at 4° C., and then transferred to 70% alcohol for storage; in the case of mice, the eyeballs were prefixed by injecting 4% paraformaldehyde, followed by removal from the carcasses and immersion fixation as above. After the cornea and lens of the left eyes were removed, the remaining eye cup was embedded in paraffin with the orientation parallel to the optic nerve in longitudinal position. In all cases, 5-μm serial sections were cut by using a rotary microtome and were mounted on Superfrost Plus slides.
(§3) Paraffin sections were deparaffinized, rehydrated, and subjected to antigen retrieval by boiling for 20 minutes in 10 mM sodium citrate solution (pH 6.0). […] The area to be analyzed was selected and converted to grey scale, the threshold (Yen mode) was adjusted, and the area percentage of positive staining was measured for each section by using the NIH Image J software package. […]

[3] = system: RPE of aged 3×Tg-AD mice; experiment: Auto-fluorescence of RPE lipofuscin granules and deposits in aged 3×Tg-AD mice; type: in vivo, mouse
Description: as §1, §2
(§4) Paraffin sections were deparaffinized, rehydrated, and covered with coverslips with 0.1M PBS and then photographed by using a confocal microscope with red channel (λex=543, λem=590/50), as described previously. […] For quantification, the number of deposits between RPE and Cho in each section was manually counted by using a 20× or, where necessary, a higher magnification objective.

[4] = system: retina of aged Fisher rats; experiment: Retinal morphology by H & E staining in aged Fisher rats; type: in vivo, rat; conditions: 500 nmoles/kg/day by gavage, 3 months
Experimental: (§5) Female aged (19˜21 months) Fisher rats (n=7) were given P021 per os by gavage (10 ml/kg body weight) once a day for 88 days. The dose of P021 was 500 nanomoles (289.15 microgram)/kg body weight daily. As controls, a second group of aged (19˜21 months) female rats (n=7) and a group of young adult female rats (2-3 months, n=7) were treated identically, but with normal saline (vehicle) only (FIG. 1A). Administration of vehicle and test compound was done at 7-9 AM daily in the pretesting phase.
as §2
(§6) Every 25th retinal section was deparaffinized and subjected to hematoxylin and eosin (H & E) staining to evaluate the morphology. The H & E staining images were captured with a light microscope using 2×, 40×, and 100× objective lenses. Because there is no significant difference between the ⅕th to the ⅓rd of the retina from the optic nerve head and the most peripheral part, the ⅕^th position of the retina from the optic nerve to the most peripheral part of the retina was chosen as the “central,” and the most peripheral part of the retina as “peripheral.” Rows of the outer nuclear layer (ONL) and the inner nuclear layer (INL) of the retina in each group (every 25th section, 3-5 sections per rat or mouse) were manually counted in three columns per image by using a 40× or, where necessary, a higher magnification objective. The thicknesses of the ONL and INL of the central and peripheral retina in each group (every 25th section from the optic nerve head, 2-3 sections per rat or mouse) were measured and quantified by using the ImageJ/NIH image analysis system.

[5] = system: rat and mouse models of AD; conditions: cited from earlier work
[6] = cited from earlier work
[7] = system: Iba-1; experiment: Iba-1 immunofluorescence (microgliosis) in retina of aged 3×Tg-AD mice; type: in vivo, mouse; conditions: 60 nmoles/g feed from 3 to 21 months of age
Description: as §1, with “feed/day. […]” for “feed/day.”
as §3

[8] = Stability in artificial intestinal juice; type: in vitro ADME; conditions: simulated intestinal fluid; during 120 minutes; read-out: stable in artificial intestinal juice
Experimental: (§7) P021 is quite stable in artificial gastric juice (˜90% during 30 minutes) and in artificial intestinal juice (˜95% during 120 minutes).

[9] = system: Iba-1; experiment: Iba-1 immunofluorescence (microgliosis) in retina of aged rats; type: in vivo, rat; conditions: 500 nmoles/kg/day by gavage, 3 months
Experimental: as §5, §2
as §3, with “6.0). Sections were then washed three times in 10 mM PBS for 15 minutes each and incubated in 0.3% Triton X-100 for 30 minutes. The sections were again washed in 10 mM PBS (15 minutes, three times each) and blocked in blocking solution (5% normal goat serum containing 0.1% Triton X-100 and 0.05% Tween 20 in PBS) for 45 minutes.” for “6.0).”

[10] = system: GFAP; experiment: GFAP immunofluorescence (astrogliosis) in retina of aged rats; type: in vivo, rat
Experimental: as §5
(§8) The animals were anesthetized by using an overdose of avertin and then were transcardially perfused by using 0.1 M phosphate-buffered saline (PBS). Eyeballs were dissected out from the carcasses, immersion-fixed for 24 hours in 4% paraformaldehyde at 4° C., and then transferred to 70% alcohol for storage; in the case of mice, the eyeballs were prefixed by injecting 4% paraformaldehyde, followed by removal from the carcasses and immersion fixation as above. […]
as §3

[11] = system: total tau, P-tau, Aβ/APP; experiment: Tau, phosphorylated tau and Aβ/APP immunofluorescence in retina and optic nerve of aged 3×Tg-AD mice; type: in vivo, mouse
Description: as §1, §2
(§9) Paraffin sections were deparaffinized, rehydrated, and subjected to antigen retrieval by boiling for 20 minutes in 10 mM sodium citrate solution (pH 6.0). Sections were then washed three times in 10 mM PBS for 15 minutes each and incubated in 0.3% Triton X-100 for 30 minutes. The sections were again washed in 10 mM PBS (15 minutes, three times each) and blocked in blocking solution (5% normal goat serum containing 0.1% Triton X-100 and 0.05% Tween 20 in PBS) for 45 minutes. Sections were then incubated overnight at 4° C. with the corresponding primary antibodies (see Table 1 for antibodies used in this study) diluted in the same blocking solution. After being washed three times for 15 minutes each with 10 mM PBS, sections were incubated with Alexa-Fluor 488-conjugated goat anti-mouse or anti-rabbit IgG secondary antibodies (1:1000) in 10 mM PBS with 0.05% Tween 20 for 2 hours at room temperature. Sections were subsequently washed one time and incubated with To-Pro (1:1000) for 15 minutes. After being washed three times for 15 minutes, sections were mounted and cover-slipped by using ProLong Gold anti-fade reagent. The absence of primary antibody control staining was included in each experiment as a negative control. Double immunofluorescence and To-Pro images were captured at equal camera exposure (for each antibody staining) with a Nikon EZ-C1 laser confocal imaging system. The area to be analyzed was selected and converted to grey scale, the threshold (Yen mode) was adjusted, and the area percentage of positive staining was measured for each section by using the NIH Image J software package. The staining area was averaged from 2-3 independent sections of each eye (n=5-7 different animals per group).

[12] = BBB studies through a commercial service (APREDICA)
[13] = system: RPE of aged Fisher rats; experiment: Auto-fluorescence of RPE lipofuscin granules and deposits in aged Fisher rats; type: in vivo, rat; conditions: 500 nmoles/kg/day by gavage, 3 months
Experimental: as §5, §8, §4

[14] = system: retina of aged 3×Tg-AD mice; experiment: Retinal morphology by H & E staining in aged 3×Tg-AD mice; type: in vivo, mouse; conditions: 60 nmoles/g feed from 3 to 21 months of age
Description: as §1, §2, §6

[15] = system: total tau, P-tau, Aβ/APP; experiment: Tau, phosphorylated tau and Aβ/APP immunofluorescence in retina of aged rats; type: in vivo, rat
Experimental: as §5, §2, §9

[16] = system: GFAP; experiment: GFAP immunofluorescence (astrogliosis) in retina of aged 3×Tg-AD mice; type: in vivo, mouse; conditions: 60 nmoles/g feed from 3 to 21 months of age
Description: as §1, §2, §3

[17] = Stability in artificial gastric juice; type: in vitro ADME; conditions: simulated gastric fluid; during 30 minutes; read-out: stable in artificial gastric juice
Experimental: as §7

[18] = 3×Tg-AD mice, 60 nmoles/g feed from 3 to 21 months of age
[19] = 60 nmoles/g feed from 3 to 21 months of age, auto-fluorescence

CC(=O)N[C@@H](CC(=O)O)C(=O)NCC(=O)NCC(=O)N[C@@H](CC(C)C)C(=O)NC1(C(N)=O)C2CC3CC(C2)CC1C3 (stereo partly shown) [P021, Ac-DGGL^AG-NH2] (Ac-DGGL[X1]-NH2)
general physical state (side effects) [1]: did not reveal any worsening in general physical state | VEGF staining in the optic nerve [2, 18]: the size of the staining patch was decreased | localization of VEGF-positive spots in the retina [2, 18]: limited mainly to the GFL to the IPL | expression of VEGF in retinas ([2]; aged mice): prevents increase in the expression of VEGF | deposits between the RPE and Cho [3, 19]: significantly reduced | lipofuscin granules in RPE [3, 19]: some small lipofuscin granules could still be observed | RPE and BM abnormalities (AMD features) overall ([3]; P021 administered in the diet): Most of these AMD features were prevented | RPE vacuolization and atrophy [4]: no apparent abnormalities were observed | arrangement of apical microvilli (AM) in RPE [4]: showed improvement in the arrangement of AM | decrease in rows and thickness of ONL, central vs peripheral retina [4]: prevented these pathological changes more effectively in the central retina | outer retinal folds and rosette-like structures in the central retina [4]: No abnormal structure like this was observed | rows and thickness of INL in the central retina [4]: no detectable effect | rows and thickness of ONL, P021-treated aged rats vs young rats [4]: no significant difference between ˜5- to 6-month-old rats and P021-treated ˜22- to 24-month-old rats | rows of INL in the peripheral retina [4]: showed a clear trend to rescue the number of rows | cognitive impairment, synaptic deficit, neuroinflammation, tau and Aβ pathologies [5]: rescue cognitive impairment, synaptic deficit, neuroinflammation, and tau and Aβ pathologies | oral bioavailability [6]: orally bioavailable | Iba-1 immunostaining (area percentage) in the peripheral retina [7]: decreased in 3×Tg-21 m/P021 mice to the levels in WT-3 m/Veh and 3×Tg-3 m/Veh mice | distribution of Iba-1-positive staining in the central retina [7]: Iba-1-positive staining was only observed in the GCL | remaining at 2 h [8]: ~95% | relative Iba-1 immunostaining from the NFL to the OS, central and peripheral retinas [9]: dramatically reduced | Iba-1 staining from the ONL to the OS ([9]; especially central retina): no staining was found from the ONL to the OS | localization of Iba-1 from the NFL to the OPL ([9]; vs vehicle aged rats): decrease in localization from the NFL to the OPL | area percentage of GFAP-positive staining, central and peripheral retinas [10]: drastically elevated in the central and peripheral retinas in ˜22- to 24-month-old/Veh rats as compared to ˜5- to 6-month-old/Veh rats and ˜22- to 24-month-old/P021 rats | GFAP staining ([10]; 500 nmoles/kg/day by gavage, 3 months, vs vehicle aged rats): reduced very much | tau and Aβ pathologies in the retina [11, 18]: prevented the increase in tau and Aβ pathologies | Aβ/APP immunoreactivity ([11]; retinas of aged mice): prevents increase of Aβ/APP immunoreactivity | tau hyperphosphorylation at Ser-202/Thr-205 (AT8 site) ([11]; retinas of aged mice): prevents increase in the expression of tau hyperphosphorylation at Ser-202/Thr-205 | tau hyperphosphorylation at Ser-396/404 (PHF-1 site) ([11]; retinas of aged mice): prevents increase in the expression of tau hyperphosphorylation at Ser-396/404 | total tau immunoreactivity (R134d) ([11]; retinas of aged mice): prevents the increase in total tau immunoreactivity | crossing of the BBB [12]: a sufficient amount of P021 crossed the BBB | lipofuscin granules and deposition number between RPE and Cho [13]: obviously decreased | decrease in rows and thickness of INL in the central retina [14]: chronic treatment with P021 prevented these changes | decrease in rows and thickness of ONL in the central retina [14]: prevented | decrease in rows and thickness of ONL in the peripheral retina [14]: not in the peripheral retina | extension of ONL nuclei across the OPL into the INL, central retina [14]: this pathology was prevented | prevention of changes in rows and thickness of INL in the peripheral retina [14]: did not reach significance | rescue of INL thickness in the central retina [14]: did not reach statistical significance | tau and Aβ pathologies in the retina ([15]; aged rats, 500 nmoles/kg/day by gavage, 3 months): prevented the increase in tau and Aβ pathologies | Aβ/APP immunoreactivity ([15]; retinas of aged rats): prevents increase of Aβ/APP immunoreactivity | tau hyperphosphorylation at Ser-202/Thr-205 (AT8 site) ([15]; retinas of aged rats): prevents increase in the expression of tau hyperphosphorylation at Ser-202/Thr-205 | tau hyperphosphorylation at Ser-396/404 (PHF-1 site) ([15]; retinas of aged rats): prevents increase in the expression of tau hyperphosphorylation at Ser-396/404 | total tau immunoreactivity (R134d) ([15]; retinas of aged rats): prevents the increase in total tau immunoreactivity | area percentage of GFAP from the NFL to the ONL in the central retina [16]: reduced by P021 treatment to the levels in WT-3m/Veh and 3×Tg-3 m/Veh mice | distribution of GFAP-positive staining [16]: limited to the NFL and GCL | area percentage of GFAP in the peripheral retina ([16]; similar trend): did not reach statistical significance | remaining at 0.5 h [17]: ~90%
